Tests used:
skin of a minipig = assay: In vivo transdermal delivery on the back of minipigs, passive and active (photoacoustic device); conditions: device of Example 1, 12 laser shots at 355 nm, 10 mJ per pulse
From the text: In vivo and in vitro tests employed four minipigs obtained from IMIDHA (Instituto Madrileño de Investigación y Desarrollo Rural, Agrario y Alimentario)—Aranjuez (Madrid). They were all females, aged 6-8 months, white with brown spots, average weight 56.8 kg (66.2, 57.1, 43.5, 60.6 kg). They were received at Estação Zootécnica Nacional, Vale de Santarém, where they were accommodated in individual boxes with 1.5 m^2, feed with a standard diet for pigs and water ad libidum, for an acclimation period of three weeks. The study was performed in accordance to the Portuguese ethical guidelines on a license granted by Dircção de Serviços de Saúde o Protecção Animal, ref. 0420/000/000/2007. Access to food was suspended 24 h hours before treatment. The backs of the animals were shaved 24 h prior to the in vivo application of the dermatological formulations. […]
(§1) The skin samples collected after the experiments were analyzed by microscopy to evaluate the penetration depth of the desired compounds, or followed an extraction procedure to evaluate their amounts under the skin. The evaluation of the penetration depth by fluorescence microscopy or by confocal microscopy requires tissue fixation. […] The skin slices were collected in microscope slides and kept refrigerated until they were analyzed by fluorescence microscopy and confocal microscopy. […]

[1] = In vitro transdermal delivery through minipig skin samples, passive versus active (photoacoustic device); format: in vitro ADME; conditions: extraction with dichloromethane and fluorescence, confirming fluorescence microscopy; high-impulse broadband pressure wave versus passive
Procedure: Skin sections were cut from the back of the minipigs after they had been sacrificed. These skin sections were frozen and kept at −18° C. until use in in vitro tests. Before each in vitro test, the required amount of minipig skin was slowly brought to room temperature. All the tests were carried out at room temperature.
as §1, with “fixation. The first step in the fixation was immersion in paraformaldehyde (4% in aqueous solution) for at least 24 h. Next, the samples were transferred to a 25% sucrose solution for at least 48 h.” for “fixation.”
In order to evaluate the quantities of the F2TPPMet delivered under the skin a specific method was developed. […] Fluorescence calibration curves of the pharmacological excipient delivered in the skin were performed in the extractor solvent to validate the methodology used. Finally, the mass delivered onto the skin is determined for each essay substituting its fluorescence in the calibration curve. […]

For “5,10,15,20-tetrakis(2,6-fluoro-3-N-methylsulfamoylphenyl)porphyrin [F2TPPMet]”, the “state of the stratum corneum after active transdermal delivery” value (skin of a minipig; 20 minutes incubation) was “stratum corneum remained intact”, the “distribution in the skin by fluorescence microscopy after active transdermal delivery” value (skin of a minipig; ca 1 cm^2, 20 minutes incubation) was “distributed over all the epidermis” and the “quantity of F2TPPMet delivered to the skin, active versus passive transdermal delivery” value [1] was “increase in the quantity of F2TPPMet delivered to the skin”.

From patent US9623226B2, “Device for efficient delivery of compounds to or through the skin or biological barriers, using light-absorbing thin films” (Universidade de Coimbra, priority 2011, dated 2017)
